According to PMC7187334 (Clinical Pharmacology in Drug Development, 2019):
“Also recorded” adds a separate entry of the source. Marks after values point to notes of the source that are not given here.

Assays:
[1] = system: CYP2C8; conditions: in vitro; read-out: IC50, CYP2C8 inhibition; cited from earlier work
[2] = molecular target: P‐glycoprotein (Homo sapiens, UniProt P08183); assay: P-glycoprotein inhibition in vitro; format: in vitro ADME
[3] = system: leukotriene B4 production in human leukocytes; conditions: in vitro; cited from earlier work
[4] = system: CYP2C9; conditions: in vitro; read-out: IC50, CYP2C9 inhibition; cited from earlier work
[5] = system: CYP3A4 and CYP3A5; conditions: in vitro; UGT 1A1, 1A3, 1A4 glucuronidation also contributes; cited from earlier work
[6] = system: CYP2C19; conditions: in vitro; read-out: IC50, CYP2C19 inhibition; cited from earlier work
[7] = Phase 1 crossover study: AZD5718 plasma pharmacokinetics; format: in vivo, human; conditions: for AUC(0-inf) / AUC(0-t) / half-life / Tmax / Cmax: human, plasma, oral; for AUC(0-inf): AZD5718 AUC0-inf; for AUC(0-t): AZD5718 AUC0-last; for half-life: AZD5718 t1/2 lambda z; for Tmax: AZD5718 tmax, median (range); for Cmax: AZD5718 Cmax
Experimental: The primary objective was to evaluate the pharmacokinetics of oral rosuvastatin when administered alone and in combination with oral AZD5718. […] Each participant received 5 single-dose oral study treatments (A-E), with a minimum washout period of 7 days between each treatment period. Participants were randomly assigned to treatments in the order A, B, C, D, E or B, A, C, D, E. Treatments were: […] […] Participants fasted for at least 10 hours before treatment and for at least 4 hours after treatment. Participants receiving treatment E consumed a high-fat breakfast 30 minutes before treatment. Water was permitted as desired except within 1 hour of administration. […] Doses were taken with 240 mL of water. […] At a minimum, each analytical run included a calibration curve, a matrix blank, a control zero sample (matrix blank containing internal standard), a reagent blank, and duplicate quality control samples at 3 concentrations within the calibration range. […] Both assessments were well within the acceptance criteria. […] The pharmacokinetic analysis set for rosuvastatin included all participants who received both rosuvastatin treatments. […] Statistical analyses were performed by […] using SAS version 9.4. Rosuvastatin pharmacokinetics were analyzed using a mixed-effects model, with log-transformed AUC, AUC0-last, and Cmax as the response variables; treatment sequence, period, and treatment as fixed effects; and participant nested within treatment sequence as a random effect. […] LS mean differences and 90%CIs for the effect of formulation or food for log-transformed variables were back transformed to geometric mean ratios and presented as percentages with 90% CIs.

[8] = system: leukotriene B4 production; conditions: healthy volunteers, first-in-human study; 95% CI 4.8-5.8 nM; read-out: IC50, inhibition of leukotriene B4 production, whole-blood ex vivo stimulation assay; cited from earlier work
[9] = system: CYP3A4; conditions: in vitro; read-out: IC50, CYP3A4 inhibition; cited from earlier work
[10] = system: leukotriene E4 levels in urine; conditions: healthy volunteers, first-in-human study; 95% CI 0.7-1.0 nM; read-out: IC50, reduction of endogenous leukotriene E4 levels in urine; cited from earlier work
[11] = molecular target: T1, breast cancer resistance protein (BCRP) (Homo sapiens, UniProt Q9UNQ0); assay: BCRP transporter inhibition in vitro; format: in vitro ADME; conditions: unpublished data
T1 sequence (Q9UNQ0 1-655): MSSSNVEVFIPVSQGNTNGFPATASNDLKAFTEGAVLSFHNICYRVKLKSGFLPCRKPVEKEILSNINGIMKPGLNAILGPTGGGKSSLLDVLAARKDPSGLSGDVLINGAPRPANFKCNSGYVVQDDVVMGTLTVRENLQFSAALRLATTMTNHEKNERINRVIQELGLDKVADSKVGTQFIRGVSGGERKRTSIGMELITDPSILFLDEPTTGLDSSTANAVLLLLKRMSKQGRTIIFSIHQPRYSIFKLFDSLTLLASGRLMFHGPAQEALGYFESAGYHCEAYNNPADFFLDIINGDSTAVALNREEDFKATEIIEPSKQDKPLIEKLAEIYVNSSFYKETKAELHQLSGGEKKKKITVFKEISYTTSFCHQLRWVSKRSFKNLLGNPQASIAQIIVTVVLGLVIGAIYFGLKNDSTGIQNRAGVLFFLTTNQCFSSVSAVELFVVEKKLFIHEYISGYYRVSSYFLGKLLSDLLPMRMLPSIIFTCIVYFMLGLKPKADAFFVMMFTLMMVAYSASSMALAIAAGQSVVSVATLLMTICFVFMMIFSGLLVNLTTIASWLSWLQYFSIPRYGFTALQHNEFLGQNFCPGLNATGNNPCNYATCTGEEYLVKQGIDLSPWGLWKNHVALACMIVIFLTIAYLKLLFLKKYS

[12] = 200 mg suspension, fasted, n = 10
[13] = 200 mg tablet plus rosuvastatin 10 mg, fasted, n = 12
[14] = 200 mg, arithmetic mean (SD), 200 mg suspension, fasted, n = 10
[15] = 200 mg, arithmetic mean (SD), 200 mg tablet, fasted, n = 10
[16] = 200 mg, arithmetic mean (SD), 200 mg tablet, fed, n = 12
[17] = 200 mg, geometric mean (%CV), 200 mg suspension, fasted, n = 10
[18] = 200 mg, geometric mean (%CV), 200 mg tablet, fasted, n = 10
[19] = 200 mg, geometric mean (%CV), 200 mg tablet, fed, n = 12
[20] = arithmetic mean (SD), 200 mg tablet plus rosuvastatin 10 mg, fasted, n = 12
[21] = geometric mean (%CV), 200 mg tablet plus rosuvastatin 10 mg, fasted, n = 12
[22] = male, 200 mg, geometric mean (%CV), 200 mg suspension, fasted, n = 12
[23] = male, 200 mg, geometric mean (%CV), 200 mg tablet, fasted, n = 12
[24] = male, 200 mg, geometric mean (%CV), 200 mg tablet, fed, n = 12
[25] = male, geometric mean (%CV), 200 mg tablet plus rosuvastatin 10 mg, fasted, n = 12
[26] = tablets after high-fat breakfast relative to fasting

Chain of P‐glycoprotein (P08183 whole entry): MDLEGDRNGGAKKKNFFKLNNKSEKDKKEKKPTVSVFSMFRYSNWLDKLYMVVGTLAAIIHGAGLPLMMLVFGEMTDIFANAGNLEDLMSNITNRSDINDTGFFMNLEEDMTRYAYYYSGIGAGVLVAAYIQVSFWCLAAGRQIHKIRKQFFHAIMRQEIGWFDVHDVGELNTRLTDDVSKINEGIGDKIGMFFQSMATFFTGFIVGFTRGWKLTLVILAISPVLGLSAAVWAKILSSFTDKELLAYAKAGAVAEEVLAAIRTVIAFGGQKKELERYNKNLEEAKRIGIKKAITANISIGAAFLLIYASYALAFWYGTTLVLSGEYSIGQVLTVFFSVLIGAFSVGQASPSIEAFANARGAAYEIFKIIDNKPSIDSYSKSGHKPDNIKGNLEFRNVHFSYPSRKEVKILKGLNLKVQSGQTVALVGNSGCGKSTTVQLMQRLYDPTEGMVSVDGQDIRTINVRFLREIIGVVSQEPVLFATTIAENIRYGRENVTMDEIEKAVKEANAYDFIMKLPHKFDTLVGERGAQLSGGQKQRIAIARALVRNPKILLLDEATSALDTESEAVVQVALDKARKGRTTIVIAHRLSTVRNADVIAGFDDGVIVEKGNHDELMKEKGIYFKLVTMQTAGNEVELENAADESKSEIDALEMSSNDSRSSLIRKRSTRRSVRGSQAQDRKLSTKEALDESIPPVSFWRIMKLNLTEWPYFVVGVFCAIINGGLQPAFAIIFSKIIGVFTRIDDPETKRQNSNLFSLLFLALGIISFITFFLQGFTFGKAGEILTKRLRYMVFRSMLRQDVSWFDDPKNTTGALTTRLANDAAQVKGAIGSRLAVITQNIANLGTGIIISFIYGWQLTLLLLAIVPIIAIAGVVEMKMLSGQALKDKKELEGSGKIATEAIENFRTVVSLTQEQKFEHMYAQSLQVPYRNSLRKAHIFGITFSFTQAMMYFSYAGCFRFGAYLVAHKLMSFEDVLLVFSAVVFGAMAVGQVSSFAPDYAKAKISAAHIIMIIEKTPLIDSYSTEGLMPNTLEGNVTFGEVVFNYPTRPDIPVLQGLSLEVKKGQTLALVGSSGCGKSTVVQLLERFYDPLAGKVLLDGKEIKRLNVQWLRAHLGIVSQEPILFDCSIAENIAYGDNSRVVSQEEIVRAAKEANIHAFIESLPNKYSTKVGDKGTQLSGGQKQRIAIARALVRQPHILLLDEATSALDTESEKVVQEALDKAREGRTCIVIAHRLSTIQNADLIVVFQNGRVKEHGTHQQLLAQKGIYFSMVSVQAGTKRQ

Compound: Cc1cc(-c2ccc(C(=O)[C@@H]3CCCC[C@H]3C(=O)Nc3cnn4c3C(=O)NCC4)cc2)n[nH]1 [AZD5718]
- IC50 [1]: > 20 µM
- IC50 [2]: > 100 µM
- IC50 [3]: 39 nM
- IC50 [4]: > 20 µM
- enzymes involved in metabolism [5]: cytochrome P450 (CYP) 3A4 and CYP3A5 are involved in the metabolism
- IC50 [6]: > 20 µM
- AZD5718 CL/F, arithmetic mean (SD) [7, 12]: 93.55 (20.40) ^a L/h
- AZD5718 CL/F, geometric mean (%CV) [7, 12]: 91.5 (22.2) ^a L/h
- AZD5718 CL/F, arithmetic mean (SD) [7, 13]: 127.6 (28.12) L/h
- AZD5718 CL/F, geometric mean (%CV) [7, 13]: 124.6 (22.6) L/h
- AZD5718 Cmax, ratio of geometric LS means ([7]; 200 mg tablet vs oral suspension, fasted, 90% CI 36%-57%): 45%
- AZD5718 AUC0-inf (relative bioavailability), geometric LS mean ratio ([7]; 200 mg tablet vs oral suspension, fasted, 90% CI 64%-80%): 72%
- AZD5718 CL/F, arithmetic mean (SD) ([7]; 200 mg tablet, fasted, n = 10): 128.1 (25.63) ^a L/h
- AZD5718 CL/F, geometric mean (%CV) ([7]; 200 mg tablet, fasted, n = 10): 126.0 (20.1) ^a L/h
- AZD5718 AUC0-inf (relative bioavailability), geometric LS mean ratio ([7]; 200 mg tablet, fed (high-fat breakfast) vs fasted, 90% CI 87%-106%): 96%
- AZD5718 Cmax, geometric LS mean ratio ([7]; 200 mg tablet, fed vs fasted, 90% CI 63%-95%): 77%
- AZD5718 CL/F, arithmetic mean (SD) ([7]; 200 mg tablet, fed, n = 12): 136.9 (25.53) L/h
- AZD5718 CL/F, geometric mean (%CV) ([7]; 200 mg tablet, fed, n = 12): 134.4 (20.4) L/h
- Effect of rosuvastatin coadministration on AZD5718 pharmacokinetics ([7]; AZD5718 200 mg tablet plus rosuvastatin 10 mg vs tablet alone): unaffected; also recorded: not affected
- Between-participant variability (CV) of AUC0-inf and AUC0-last ([7]; AZD5718 tablets): < 25%
- AUC(0-inf) [7, 14]: 5 µM·h
- AUC(0-inf) [7, 15]: 3.62 µM·h
- AUC(0-inf) [7, 16]: 3.4 µM·h
- AUC(0-inf) [7, 17]: 4.89 µM·h
- AUC(0-inf) [7, 18]: 3.56 µM·h
- AUC(0-inf) [7, 19]: 3.33 µM·h
- AUC(0-t) ([7]; 200 mg, arithmetic mean (SD), 200 mg suspension, fasted, n = 12): 4.75 µM·h
- AUC(0-t) ([7]; 200 mg, arithmetic mean (SD), 200 mg tablet, fasted, n = 12): 3.49 µM·h
- AUC(0-t) [7, 16]: 3.27 µM·h
- half-life [7, 14]: 816 min
- half-life [7, 15]: 840 min
- half-life [7, 16]: 822 min
- half-life [7, 17]: 792 min
- half-life [7, 18]: 792 min
- half-life [7, 19]: 810 min
- Tmax ([7]; 200 mg, 200 mg suspension, fasted, n = 12): 1 h
- Tmax ([7]; 200 mg, 200 mg tablet, fed, n = 12): 4 h
- AUC(0-inf) [7, 20]: 3.67 µM·h
- AUC(0-inf) [7, 21]: 3.59 µM·h
- AUC(0-t) [7, 20]: 3.55 µM·h
- half-life [7, 20]: 900 min
- half-life [7, 21]: 834 min
- Tmax [7, 13]: 2.01 h
- Decrease in AZD5718 Cmax ([7]; immediate-release tablets relative to oral suspension): about 55%
- AUC(0-t) [7, 22]: 4.65 µM·h
- AUC(0-t) [7, 23]: 3.43 µM·h
- AUC(0-t) [7, 24]: 3.21 µM·h
- Cmax ([7]; male, 200 mg, arithmetic mean (SD), 200 mg suspension, fasted, n = 12): 1250 nM
- Cmax ([7]; male, 200 mg, arithmetic mean (SD), 200 mg tablet, fasted, n = 12): 565 nM
- Cmax ([7]; male, 200 mg, arithmetic mean (SD), 200 mg tablet, fed, n = 12): 427 nM
- Cmax [7, 22]: 1170 nM
- Cmax [7, 23]: 530 nM
- Cmax [7, 24]: 409 nM
- AUC(0-t) [7, 25]: 3.46 µM·h
- Cmax ([7]; male, arithmetic mean (SD), 200 mg tablet plus rosuvastatin 10 mg, fasted, n = 12): 567 nM
- Cmax [7, 25]: 545 nM
- Decrease in AZD5718 Cmax [7, 26]: about 23%
- Delay in AZD5718 tmax [7, 26]: about 1 hour
- IC50 [8]: 5.3 nM
- IC50 [9]: > 20 µM
- IC50 [10]: 0.8 nM
- IC50 [11]: 20 µM
